Patent US12415785B2, “Compound modulators of sting” (CTXT PTY LTD, priority 2019, dated 2025)
Like-named read-outs stand apart in the source and are kept apart here.

Assays:
[1] = target: WT human STING isoform (THP-1-Dual KI-hSTING-R232 cells) (Homo sapiens (Human), UniProt Q86WV6, H232R); assay: THP-1-Dual KI-hSTING-R232 reporter cell line assay; format: cell-based; details: 24 h incubation, QUANTI-Luc luminescence
Protocol: THP-1 STING Lucia ISG cells (InvivoGen #thpI-isg) were cultured in RPMI-1640 containing 2 mM L-glutamine, 25 mM HEPES, 100 μg/mL Normocin (InvivoGen) and 10% heat-inactivated FBS. Cells were seeded at a density of 7×10^5 cells/mL, maintained at 37° C./5% CO2, and passaged every 3-4 days. Selection pressure was maintained by the addition of 100 μg/mL Zeocin every second passage.
Assay conditions: cells were harvested and resuspended at a concentration of 5×10^5 cells/mL in fresh growth media. Of this cell preparation 20 μL per well was dispensed into 384 well cell culture plates (Greiner, #781098X) and incubated at 37° C./5% CO2 for 2 hours. Concentration Response Curves (commonly 11 doses) were prepared by 2.5 fold serial dilution starting from 10 mM compound stock solution in DMSO. Compound dilutions were transferred into the cell culture plates using a pintool (0.1 μL transfer), control wells were matched for DMSO. Positive control wells received ML RR—S2 CDA (Med Chem Express HY12885B) in 5 μL of media to a final concentration of 40 μM. All other wells received additional 5 μL of media only to equalise volume. The plates were incubated for 24 h at 37° C./5% CO2.
For the detection step, QUANTI-Luc (InvivoGen #rep-qlc1) was prepared according to manufacturer's instruction and 10 μL were added per well to the culture plates. Plates were shaken for ten seconds on an orbital shaker and left in the dark at room temperature for two minutes, before luminescence was read on a Perkin Elmer Envision plate reader.
Data analysis: Luminescence raw data was normalised % activity relative to the signal of the positive control wells and negative control wells which were not treated with compound. The following formula was used to calculate normalised % activity from raw signals: % activity=(sample−negative)/(positive−negative)
The THP-1 STING Lucia ISG cell EC50 provides an assessment of activity at the human HAQ isoform of STING. For assessing compound activity against the WT human STING isoform, an equivalent method was conducted where the cells used were THP-1-Dual KI-hSTING-R232 (InvivoGen #thpd-r232).

human STING (WT) = human STING (WT) (Homo sapiens (Human), UniProt Q86WV6, H232R); assay: Differential scanning fluorimetry (DSF), huSTING (WT); format: binding; details: for ΔTm at 100 µM: read-out: DSF huSTING (WT) ΔTm (° C.)
Sequence of human STING (WT) (Q86WV6 other isoform, or with tags, fused parts or gaps, stated change not applied): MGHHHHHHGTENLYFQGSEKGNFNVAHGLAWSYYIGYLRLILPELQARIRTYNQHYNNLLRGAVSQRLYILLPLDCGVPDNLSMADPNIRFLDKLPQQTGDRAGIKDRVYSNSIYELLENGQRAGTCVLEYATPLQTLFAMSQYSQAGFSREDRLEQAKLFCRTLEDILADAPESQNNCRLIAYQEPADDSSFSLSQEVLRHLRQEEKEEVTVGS
Protocol: Biophysical experiments were performed with three different recombinant human STING protein variants designated according to allelic nomenclature of Yi et al., (2013). […] These were ligated into a modified pET43a E. coli expression vector designed to encode N-terminal His tag followed by tobacco etch virus protease (TEV) cleavage site and a STING gene sequence. The resulting protein sequences for the three allelic variants are listed below: […] Cultures were then cooled to 16° C. and protein expression induced by the addition of isopropyl β-D-1-thiogalactopyranoside to a final concentration of 0.5 mM and the cultures shaken overnight for further 16 hours. Following expression, cell cultures were centrifuged at 5000×g for 20 min and cell pellet stored frozen at −70° C. Protein purification was initiated by thawing the cell pellet in Lysis buffer (25 mM Tris-HCl pH 8.0, 300 mM NaCl, 5 mM DTT, 2 mM MgCl2, 10 mM imidazole, 0.5 mg/ml lysozyme, benzonase endonuclease [EMD Millipore], 1 mM PMSF, complete protease inhibitor tablets EDTA-free [Roche]) using a ratio of 7 ml of buffer per 1 g of cells. Cells were further lysed by 3 passes through an ice cooled Avestin C5 cell crusher and then centrifuged at 48,000×g at 4° C. […] The IMAC column was then sequentially washed with IMAC Wash buffer 1 and IMAC Wash buffer 2 (25 mM Tris-HCl pH 8.0, 300 mM NaCl, 5 mM DTT, 20 mM Imidazole) and bound His-TEV-hSTING protein eluted with IMAC Elution buffer (25 mM Tris-HCl pH 8.0, 300 mM NaCl, 5 mM DTT, 250 mM Imidazole). […] Differential scanning fluorimetry (DSF) is a rapid screening method for identifying low-molecular-weight ligands that bind and, in doing so, stabilize (or sometimes destabilize) purified proteins (Niesen 2007). DSF monitors thermal unfolding of protein in the presence of a fluorescent dye and is typically performed using a real-time PCR instrument. The temperature at which a protein unfolds is measured by an increase in the fluorescence of a dye with affinity for hydrophobic parts of the protein that are gradually being exposed during unfolding. The fluorescence of the dye is quenched in aqueous environments, but when the dye associates with hydrophobic sites on unfolded protein, its fluorescence increases. The fluorescence intensity is plotted as a function of the temperature, generating a sigmoidal curve that can be described by a two-state transition. The inflection point of the transition curve (Tm) is calculated using simple equations such as that of Boltzmann. Thermal stability of STING protein (with and without bound ligand) was measured using previously described methodology (Seabrook & Newman, 2013), with samples tested in triplicate using 96-well PCR microplate (AB Gene, ABGAB-0600/W). […] Sealed plates were placed into Bio-Rad CFX96/C1000 thermocycler and FRET scanning mode (λ^excitation of 490 nm and reads at a λ^emission of 570 nm). Melting curves were recorded from 20° C. to 100° C. in 0.5° C. increments every 30 seconds with a read at each increment. Data were analysed using “Meltdown analysis” protocol described by Rosa (2015).

[2] = 2 μM protein, compound 100 μM, Tm with ligand minus Tm of protein alone (1% DMSO)

Sequence of WT human STING isoform (THP-1-Dual KI-hSTING-R232 cells) (Q86WV6 whole entry H232R, canonical isoform): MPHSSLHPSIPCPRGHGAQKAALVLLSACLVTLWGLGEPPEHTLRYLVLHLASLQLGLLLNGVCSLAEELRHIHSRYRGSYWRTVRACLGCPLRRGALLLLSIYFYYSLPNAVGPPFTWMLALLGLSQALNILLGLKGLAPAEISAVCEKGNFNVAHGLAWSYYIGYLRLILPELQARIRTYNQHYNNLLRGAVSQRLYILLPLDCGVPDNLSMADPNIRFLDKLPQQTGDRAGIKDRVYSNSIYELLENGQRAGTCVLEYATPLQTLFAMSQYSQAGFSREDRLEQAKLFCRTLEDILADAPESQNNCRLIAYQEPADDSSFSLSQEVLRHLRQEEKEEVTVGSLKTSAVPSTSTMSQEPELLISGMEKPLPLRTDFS

Q: For `COc1c(C(N)=O)ccc2c1nc(-c1c(Cl)cccc1C(=O)O)n2CCn1c(-c2c(Cl)cccc2C(=O)O)nc2c(OC)c(C(N)=O)ccc21` (racemic) [Example 22, 2,2′-(Ethane-1,2-diylbis(5-carbamoyl-4-methoxy-1H-benzo[d]imidazole-1,2-diyl))bis(3-chlorobenzoic acid)], which EC50 [1] is on record?
A: 1450 nM

Q: What about the ΔTm at 100 µM (human STING (WT); [2]) of the same compound?
A: 17 °C

Q: How did the EC50 [1] turn out when `COc1c(C(N)=O)ccc2c1nc(-c1c(I)cccc1C(=O)O)n2CCn1c(-c2c(I)cccc2C(=O)O)nc2c(OC)c(C(N)=O)ccc21` (single isomer, unassigned) [Example 19.1, 2,2′-(Ethane-1,2-diylbis(5-carbamoyl-4-methoxy-1H-benzo[d]imidazole-1,2-diyl))bis(3-iodobenzoic acid)] was run?
A: 232 nM

Q: And the “DSF huSTING (WT) ΔTm (° C.)” value (human STING (WT); [2])?
A: 19.29 °C

Q: With `COc1c(C(N)=O)ccc2c1nc(-c1c(Cl)cccc1-c1nn[nH]n1)n2CCn1c(-c2c(Cl)cccc2-c2nn[nH]n2)nc2c(OC)c(C(N)=O)ccc21` (single isomer, unassigned) [Example 23, 1,1′-(Ethane-1,2-diyl)bis(2-(2-chloro-6-(2H-tetrazol-5-yl)phenyl)-4-methoxy-1H-benzo[d]imidazole-5-carboxamide)] as the compound, how does the EC50 [1] read?
A: 2470 nM

Q: And the ΔTm at 100 µM (human STING (WT); [2])?
A: 15 °C

Q: How did the EC50 [1] turn out when `NC(=O)c1ccc2c(c1)nc(-c1c(Br)cccc1C(=O)O)n2CCn1c(-c2c(Br)cccc2C(=O)O)nc2cc(C(N)=O)ccc21` (single isomer, unassigned) [Example 29.1, 2,2′-(Ethane-1,2-diylbis(5-carbamoyl-1H-benzo[d]imidazole-1,2-diyl))bis(3-bromobenzoic acid)] was run?
A: 9850 nM

Q: What about the “DSF huSTING (WT) ΔTm (° C.)” value (human STING (WT); [2]) of the same compound?
A: −0.07 °C

Q: Which results are given for `COc1c(C(N)=O)ccc2c1nc(-c1ccc(Cl)cc1C(=O)O)n2CCn1c(-c2ccc(Cl)cc2C(=O)O)nc2c(OC)c(C(N)=O)ccc21` [Example 1, 6,6′-(Ethane-1,2-diylbis(5-carbamoyl-4-methoxy-1H-benzo[d]imidazole-1,2-diyl))bis(3-chlorobenzoic acid)]?
A: EC50 [1]: 895 nM; ΔTm at 100 µM (human STING (WT); [2]): 5.07 °C

Q: `NC(=O)c1ccc2c(c1)nc(-c1ccccc1C(=O)O)n2CCn1c(-c2ccccc2C(=O)O)nc2cc(C(N)=O)ccc21` [Example 2, 2,2′-(Ethane-1,2-diylbis(5-carbamoyl-1H-benzo[d]imidazole-1,2-diyl))dibenzoic acid] was tested. Which EC50 [1] did it give?
A: > 40000 nM

Q: And the ΔTm at 100 µM (human STING (WT); [2])?
A: -6.94 °C

Q: `NC(=O)c1ccc2c(c1)nc(-c1cc(Br)ccc1C(=O)O)n2CCn1c(-c2cc(Br)ccc2C(=O)O)nc2cc(C(N)=O)ccc21` [Example 3, 2,2′-(Ethane-1,2-diylbis(5-carbamoyl-1H-benzo[d]imidazole-1,2-diyl))bis(4-bromobenzoic acid)] was tested. Which EC50 [1] did it give?
A: > 40000 nM

Q: What about the ΔTm at 100 µM (human STING (WT); [2]) of the same compound?
A: -0.02 °C

Q: What does the source list for `COc1c(C(N)=O)ccc2c1nc(-c1ccccc1C(=O)O)n2CCn1c(-c2ccccc2C(=O)O)nc2c(OC)c(C(N)=O)ccc21` [Example 4, 2,2′-(Ethane-1,2-diylbis(5-carbamoyl-4-methoxy-1H-benzo[d]imidazole-1,2-diyl))dibenzoic acid]?
A: EC50 [1]: 32500 nM; ΔTm at 100 µM (human STING (WT); [2]): 3.28 °C

Q: How did the EC50 [1] turn out when `NC(=O)c1ccc2c(c1)nc(-c1ccccc1-c1nn[nH]n1)n2CCn1c(-c2ccccc2-c2nnn[nH]2)nc2cc(C(N)=O)ccc21` [Example 5, 2-(2-(1H-Tetrazol-5-yl)phenyl)-1-(2-(2-(2-(2H-tetrazol-5-yl)phenyl)-5-carbamoyl-1H-benzo[d]imidazol-1-yl)ethyl)-1H-benzo[d]imidazole-5-carboxamide] was run?
A: 6400 nM

Q: And the ΔTm at 100 µM (human STING (WT); [2])?
A: 1.33 °C

Q: Which results are given for `COc1c(C(N)=O)ccc2c1nc(-c1ccccc1-c1nn[nH]n1)n2CCn1c(-c2ccccc2-c2nn[nH]n2)nc2c(OC)c(C(N)=O)ccc21` [Example 6, 1,1′-(Ethane-1,2-diyl)bis(2-(2-(2H-tetrazol-5-yl)phenyl)-4-methoxy-1H-benzo[d]imidazole-5-carboxamide)]?
A: EC50 [1]: 936 nM; ΔTm at 100 µM (human STING (WT); [2]): 0.94 °C

Q: How did the EC50 [1] turn out when `COc1c(C(N)=O)ccc2c1nc(-c1ccc(Cl)cc1-c1nn[nH]n1)n2CCn1c(-c2ccc(Cl)cc2-c2nn[nH]n2)nc2c(OC)c(C(N)=O)ccc21` [Example 9, 1,1′-(Ethane-1,2-diyl)bis(2-(4-chloro-2-(2H-tetrazol-5-yl)phenyl)-4-methoxy-1H-benzo[d]imidazole-5-carboxamide)] was run?
A: 715 nM

Q: And the ΔTm at 100 µM (human STING (WT); [2])?
A: 5.06 °C

Q: How did the EC50 [1] turn out when `COc1c(C(N)=O)ccc2c1nc(-c1c(F)cccc1C(=O)O)n2CCn1c(-c2c(F)cccc2C(=O)O)nc2c(OC)c(C(N)=O)ccc21` [Example 10, 2,2′-(Ethane-1,2-diylbis(5-carbamoyl-4-methoxy-1H-benzo[d]imidazole-1,2-diyl))bis(3-fluorobenzoic acid)] was run?
A: 1390 nM

Q: And the ΔTm at 100 µM (human STING (WT); [2])?
A: 9.63 °C

Q: What does the source list for `COc1c(C(N)=O)ccc2c1nc(-c1c(F)cc(Cl)cc1C(=O)O)n2CCn1c(-c2c(F)cc(Cl)cc2C(=O)O)nc2c(OC)c(C(N)=O)ccc21` [Example 11, 2,2′-(ethane-1,2-diylbis(5-carbamoyl-4-methoxy-1H-benzo[d]imidazole-1,2-diyl))bis(5-chloro-3-fluorobenzoic acid)]?
A: EC50 [1]: 683 nM; ΔTm at 100 µM (human STING (WT); [2]): 10.6 °C

Q: Which results are given for `COc1c(C(N)=O)ccc2c1nc(-c1cc(F)c(F)cc1C(=O)O)n2CCn1c(-c2cc(F)c(F)cc2C(=O)O)nc2c(OC)c(C(N)=O)ccc21` [Example 15, 6,6′-(Ethane-1,2-diylbis(5-carbamoyl-4-methoxy-1H-benzo[d]imidazole-1,2-diyl))bis(3,4-difluorobenzoic acid)]?
A: EC50 [1]: 2460 nM; ΔTm at 100 µM (human STING (WT)): -0.91 °C

Q: How did the EC50 [1] turn out when `COc1c(C(N)=O)ccc2c1nc(-c1c(F)cc(F)cc1C(=O)O)n2CCn1c(-c2c(F)cc(F)cc2C(=O)O)nc2c(OC)c(C(N)=O)ccc21` [Example 16, 2,2′-(Ethane-1,2-diylbis(5-carbamoyl-4-methoxy-1H-benzo[d]imidazole-1,2-diyl))bis(3,5-difluorobenzoic acid)] was run?
A: 840 nM

Q: And the ΔTm at 100 µM (human STING (WT); [2])?
A: 7.95 °C

Q: For `COc1c(C(N)=O)ccc2c1nc(-c1ccc(Cl)cc1-c1n[nH]c(=O)o1)n2CCn1c(-c2ccc(Cl)cc2-c2n[nH]c(=O)o2)nc2c(OC)c(C(N)=O)ccc21` [Example 17, 1,1′-(Ethane-1,2-diyl)bis(2-(4-chloro-2-(5-oxo-4,5-dihydro-1,3,4-oxadiazol-2-yl)phenyl)-4-methoxy-1H-benzo[d]imidazole-5-carboxamide)], which EC50 [1] is on record?
A: 360 nM

Q: What about the ΔTm at 100 µM (human STING (WT); [2]) of the same compound?
A: 3.05 °C
